Measured values reported in the kinase profiling compilation of Christmann-Franck et al. (2016).

Experiments:
Assay in all cases: KINOMEscan competition binding
Conditions in all cases: compound 10.0 µM
FGFR4 (human) = FGFR4 (human) (UniProt P22455)
STK24 (human) = STK24 (human) (UniProt Q9Y6E0)
PIP5K1A (human) = PIP5K1A (human) (UniProt Q99755)
BMPR1B (human) = BMPR1B (human) (UniProt O00238)
CAMKK2 (human) = CAMKK2 (human) (UniProt Q96RR4)
MYLK4 (human) = MYLK4 (human) (UniProt Q86YV6)
EPHA6 (human) = EPHA6 (human) (UniProt Q9UF33)
IKBKB (human) = IKBKB (human) (UniProt O14920)
RPS6KA2 KD1 (human) = RPS6KA2 KD1 (human) (UniProt Q15349)
LCK (human) = LCK (human) (UniProt P06239)
MYO3A (human) = MYO3A (human) (UniProt Q8NEV4)
MAP3K7 (human) = MAP3K7 (human) (UniProt O43318)
MAP3K9 (human) = MAP3K9 (human) (UniProt P80192)
CDK19 (human) = CDK19 (human) (UniProt Q9BWU1)
TGFBR1 (human) = TGFBR1 (human) (UniProt P36897)
GSK3A (human) = GSK3A (human) (UniProt P49840)
NLK (human) = NLK (human) (UniProt Q9UBE8)
SIK1 (human) = SIK1 (human) (UniProt P57059)
CLK2 (human) = CLK2 (human) (UniProt P49760)
STK35 (human) = STK35 (human) (UniProt Q8TDR2)
PKMYT1 (human) = PKMYT1 (human) (UniProt Q99640)
FES (human) = FES (human) (UniProt P07332)
CDK15 (human) = CDK15 (human) (UniProt Q96Q40)
PTK2 (human) = PTK2 (human) (UniProt Q05397)
MAPK10 (human) = MAPK10 (human) (UniProt P53779)
AKT3 (human) = AKT3 (human) (UniProt Q9Y243)
EPHB4 (human) = EPHB4 (human) (UniProt P54760)
CSNK1G2 (human) = CSNK1G2 (human) (UniProt P78368)
STK32C (human) = STK32C (human) (UniProt Q86UX6)
AURKC (human) = AURKC (human) (UniProt Q9UQB9)
ACVR1 (human) = ACVR1 (human) (UniProt Q04771)
STK4 (human) = STK4 (human) (UniProt Q13043)
MERTK (human) = MERTK (human) (UniProt Q12866)
AAK1 (human) = AAK1 (human) (UniProt Q2M2I8)
CAMK2A (human) = CAMK2A (human) (UniProt Q9UQM7)
PIM3 (human) = PIM3 (human) (UniProt Q86V86)
NUAK2 (human) = NUAK2 (human) (UniProt Q9H093)
TAOK3 (human) = TAOK3 (human) (UniProt Q9H2K8)
NEK2 (human) = NEK2 (human) (UniProt P51955)
AKT2 (human) = AKT2 (human) (UniProt P31751)

Chain of FGFR4 (human) (P22455 whole entry, looked up): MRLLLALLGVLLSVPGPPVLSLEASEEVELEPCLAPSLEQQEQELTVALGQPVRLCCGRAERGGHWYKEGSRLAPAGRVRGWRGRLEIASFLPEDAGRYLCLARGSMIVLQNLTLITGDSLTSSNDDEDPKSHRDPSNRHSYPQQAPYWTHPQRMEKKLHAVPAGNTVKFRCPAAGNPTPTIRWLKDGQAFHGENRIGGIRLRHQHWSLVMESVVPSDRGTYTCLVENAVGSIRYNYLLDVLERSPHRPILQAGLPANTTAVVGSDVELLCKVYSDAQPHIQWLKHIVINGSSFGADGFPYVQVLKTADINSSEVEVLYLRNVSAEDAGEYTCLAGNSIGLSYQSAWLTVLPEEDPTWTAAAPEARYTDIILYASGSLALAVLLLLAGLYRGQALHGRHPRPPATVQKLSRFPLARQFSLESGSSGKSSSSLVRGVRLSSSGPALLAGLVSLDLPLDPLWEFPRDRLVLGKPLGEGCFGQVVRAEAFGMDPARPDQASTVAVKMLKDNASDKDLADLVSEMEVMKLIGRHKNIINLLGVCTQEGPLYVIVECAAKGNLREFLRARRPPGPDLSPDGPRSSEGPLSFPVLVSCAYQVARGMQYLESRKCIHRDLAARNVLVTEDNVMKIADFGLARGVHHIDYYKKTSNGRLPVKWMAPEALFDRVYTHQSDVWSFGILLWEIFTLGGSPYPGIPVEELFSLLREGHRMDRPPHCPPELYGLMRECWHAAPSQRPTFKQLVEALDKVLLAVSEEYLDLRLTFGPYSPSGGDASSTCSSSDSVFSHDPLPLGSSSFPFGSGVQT
Chain of SIK1 (human) (P57059 whole entry, looked up): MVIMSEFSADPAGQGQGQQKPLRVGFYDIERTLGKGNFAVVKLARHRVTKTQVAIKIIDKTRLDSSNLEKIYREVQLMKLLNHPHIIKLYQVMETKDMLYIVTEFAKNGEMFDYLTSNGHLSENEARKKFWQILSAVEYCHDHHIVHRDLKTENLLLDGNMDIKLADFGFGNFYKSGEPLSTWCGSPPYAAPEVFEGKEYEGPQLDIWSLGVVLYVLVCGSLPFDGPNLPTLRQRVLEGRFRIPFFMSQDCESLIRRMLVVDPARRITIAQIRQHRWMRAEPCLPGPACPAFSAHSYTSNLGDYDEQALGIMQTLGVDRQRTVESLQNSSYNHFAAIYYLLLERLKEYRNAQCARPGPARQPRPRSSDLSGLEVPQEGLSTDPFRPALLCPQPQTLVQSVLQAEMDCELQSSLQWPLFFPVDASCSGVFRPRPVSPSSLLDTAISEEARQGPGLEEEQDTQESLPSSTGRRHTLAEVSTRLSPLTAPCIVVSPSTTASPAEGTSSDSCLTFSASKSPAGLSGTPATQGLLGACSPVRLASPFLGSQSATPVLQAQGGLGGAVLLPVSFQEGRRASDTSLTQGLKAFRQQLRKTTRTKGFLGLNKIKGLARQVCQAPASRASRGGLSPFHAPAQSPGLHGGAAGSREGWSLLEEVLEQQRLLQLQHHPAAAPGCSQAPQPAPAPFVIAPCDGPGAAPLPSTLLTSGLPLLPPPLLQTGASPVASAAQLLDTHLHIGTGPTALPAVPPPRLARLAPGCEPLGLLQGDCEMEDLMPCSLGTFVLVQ
Chain of CSNK1G2 (human) (P78368 whole entry, looked up): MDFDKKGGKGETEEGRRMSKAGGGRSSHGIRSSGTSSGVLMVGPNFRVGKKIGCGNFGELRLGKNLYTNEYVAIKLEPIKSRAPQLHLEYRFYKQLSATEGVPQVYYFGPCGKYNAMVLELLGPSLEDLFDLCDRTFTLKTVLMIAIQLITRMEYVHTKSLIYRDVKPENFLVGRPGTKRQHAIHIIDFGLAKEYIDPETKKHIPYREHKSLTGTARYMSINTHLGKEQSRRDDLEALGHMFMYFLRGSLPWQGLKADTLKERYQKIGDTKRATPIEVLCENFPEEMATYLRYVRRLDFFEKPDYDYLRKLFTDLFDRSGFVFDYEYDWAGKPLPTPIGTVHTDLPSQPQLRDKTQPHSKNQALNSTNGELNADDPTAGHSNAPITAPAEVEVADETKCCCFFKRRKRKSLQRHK
Chain of GSK3A (human) (P49840 whole entry, looked up): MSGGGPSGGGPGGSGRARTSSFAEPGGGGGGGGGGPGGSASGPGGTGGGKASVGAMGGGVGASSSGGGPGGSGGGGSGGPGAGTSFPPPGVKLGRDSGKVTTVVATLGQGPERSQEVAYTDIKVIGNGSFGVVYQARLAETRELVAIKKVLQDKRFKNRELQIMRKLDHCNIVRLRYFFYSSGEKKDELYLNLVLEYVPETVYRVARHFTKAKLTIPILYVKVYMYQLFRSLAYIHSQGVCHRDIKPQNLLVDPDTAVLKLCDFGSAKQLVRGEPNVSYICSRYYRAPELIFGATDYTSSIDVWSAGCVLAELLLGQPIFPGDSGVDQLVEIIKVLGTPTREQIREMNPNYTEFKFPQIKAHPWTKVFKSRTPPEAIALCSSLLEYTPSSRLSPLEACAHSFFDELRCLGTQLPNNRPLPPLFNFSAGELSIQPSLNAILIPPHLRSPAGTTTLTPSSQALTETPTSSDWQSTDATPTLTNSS
Chain of CAMK2A (human) (Q9UQM7 whole entry, looked up): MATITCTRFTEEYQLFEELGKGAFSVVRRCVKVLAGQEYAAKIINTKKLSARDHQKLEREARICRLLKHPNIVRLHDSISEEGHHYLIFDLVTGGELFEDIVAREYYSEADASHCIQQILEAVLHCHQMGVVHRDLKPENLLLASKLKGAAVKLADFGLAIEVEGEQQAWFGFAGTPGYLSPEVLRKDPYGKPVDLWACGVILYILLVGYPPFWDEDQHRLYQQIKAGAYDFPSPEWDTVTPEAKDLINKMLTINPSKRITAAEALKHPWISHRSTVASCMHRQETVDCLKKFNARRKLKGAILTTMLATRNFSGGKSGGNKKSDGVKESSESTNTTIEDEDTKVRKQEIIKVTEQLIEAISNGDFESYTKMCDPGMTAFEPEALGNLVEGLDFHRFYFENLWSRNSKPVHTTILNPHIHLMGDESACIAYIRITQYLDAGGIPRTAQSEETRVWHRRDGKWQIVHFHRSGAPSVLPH
Chain of LCK (human) (P06239 whole entry, looked up): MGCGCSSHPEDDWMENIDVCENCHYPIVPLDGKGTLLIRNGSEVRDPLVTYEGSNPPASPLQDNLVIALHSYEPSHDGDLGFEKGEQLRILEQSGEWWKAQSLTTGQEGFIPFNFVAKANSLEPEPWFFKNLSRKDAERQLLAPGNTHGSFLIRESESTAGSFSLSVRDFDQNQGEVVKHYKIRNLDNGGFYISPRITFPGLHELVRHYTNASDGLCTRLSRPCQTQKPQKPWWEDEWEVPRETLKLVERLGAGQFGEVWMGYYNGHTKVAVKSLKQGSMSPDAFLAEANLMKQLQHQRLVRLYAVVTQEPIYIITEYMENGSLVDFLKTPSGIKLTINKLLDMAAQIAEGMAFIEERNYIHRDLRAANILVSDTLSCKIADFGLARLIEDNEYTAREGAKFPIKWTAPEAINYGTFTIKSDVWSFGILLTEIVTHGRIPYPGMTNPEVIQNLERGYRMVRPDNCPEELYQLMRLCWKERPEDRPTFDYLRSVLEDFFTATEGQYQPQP
Chain of CDK19 (human) (Q9BWU1 whole entry, looked up): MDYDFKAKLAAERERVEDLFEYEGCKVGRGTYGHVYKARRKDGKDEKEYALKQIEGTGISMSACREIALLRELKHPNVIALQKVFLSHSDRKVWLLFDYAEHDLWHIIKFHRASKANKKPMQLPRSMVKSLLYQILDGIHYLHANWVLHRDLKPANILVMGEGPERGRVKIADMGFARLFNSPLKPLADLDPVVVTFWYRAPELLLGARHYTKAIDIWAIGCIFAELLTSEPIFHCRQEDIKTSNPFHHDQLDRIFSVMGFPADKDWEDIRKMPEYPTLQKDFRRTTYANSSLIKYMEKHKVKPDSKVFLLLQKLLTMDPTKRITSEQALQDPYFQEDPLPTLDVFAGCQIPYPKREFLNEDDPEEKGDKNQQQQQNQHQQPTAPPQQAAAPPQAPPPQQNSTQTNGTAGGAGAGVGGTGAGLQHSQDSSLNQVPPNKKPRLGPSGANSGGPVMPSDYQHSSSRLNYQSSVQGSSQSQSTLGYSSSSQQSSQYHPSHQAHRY
Chain of TGFBR1 (human) (P36897 whole entry, looked up): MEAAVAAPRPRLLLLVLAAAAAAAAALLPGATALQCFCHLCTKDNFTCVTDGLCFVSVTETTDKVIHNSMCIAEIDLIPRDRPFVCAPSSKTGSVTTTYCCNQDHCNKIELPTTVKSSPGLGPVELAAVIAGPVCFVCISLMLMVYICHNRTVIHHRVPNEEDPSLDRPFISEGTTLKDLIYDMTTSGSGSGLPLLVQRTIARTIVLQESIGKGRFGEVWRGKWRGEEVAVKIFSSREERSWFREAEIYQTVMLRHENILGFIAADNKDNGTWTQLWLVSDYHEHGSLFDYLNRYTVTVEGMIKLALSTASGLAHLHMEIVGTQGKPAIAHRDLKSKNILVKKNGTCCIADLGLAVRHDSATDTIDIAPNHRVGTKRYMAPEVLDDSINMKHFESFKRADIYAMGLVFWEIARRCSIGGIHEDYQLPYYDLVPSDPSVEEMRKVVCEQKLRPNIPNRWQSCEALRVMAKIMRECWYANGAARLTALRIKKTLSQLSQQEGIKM
Chain of STK35 (human) (Q8TDR2 whole entry, looked up): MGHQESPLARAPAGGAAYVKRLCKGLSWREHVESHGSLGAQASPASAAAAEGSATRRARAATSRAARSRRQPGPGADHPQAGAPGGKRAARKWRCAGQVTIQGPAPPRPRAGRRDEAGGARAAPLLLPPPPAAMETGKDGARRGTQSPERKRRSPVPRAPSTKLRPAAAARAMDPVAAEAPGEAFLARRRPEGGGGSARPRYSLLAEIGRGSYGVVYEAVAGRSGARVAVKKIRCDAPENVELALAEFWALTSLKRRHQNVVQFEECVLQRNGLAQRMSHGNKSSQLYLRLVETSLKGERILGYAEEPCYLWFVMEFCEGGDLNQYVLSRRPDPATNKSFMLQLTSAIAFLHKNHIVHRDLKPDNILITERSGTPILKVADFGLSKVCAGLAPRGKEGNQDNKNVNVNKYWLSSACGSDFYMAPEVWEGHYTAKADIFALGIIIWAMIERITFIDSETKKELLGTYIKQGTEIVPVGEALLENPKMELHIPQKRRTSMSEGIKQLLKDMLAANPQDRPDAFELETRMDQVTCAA

| SMILES | kinase still bound, per cent of control (FGFR4 (human)) [%] | kinase still bound, per cent of control (STK24 (human)) [%] | kinase still bound, per cent of control (PIP5K1A (human)) [%] | kinase still bound, per cent of control (BMPR1B (human)) [%] | kinase still bound, per cent of control (CAMKK2 (human)) [%] | kinase still bound, per cent of control (MYLK4 (human)) [%] | kinase still bound, per cent of control (EPHA6 (human)) [%] | kinase still bound, per cent of control (IKBKB (human)) [%] | kinase still bound, per cent of control (RPS6KA2 KD1 (human)) [%] | kinase still bound, per cent of control (LCK (human)) [%] | kinase still bound, per cent of control (MYO3A (human)) [%] | kinase still bound, per cent of control (MAP3K7 (human)) [%] | kinase still bound, per cent of control (MAP3K9 (human)) [%] | kinase still bound, per cent of control (CDK19 (human)) [%] | kinase still bound, per cent of control (TGFBR1 (human)) [%] | kinase still bound, per cent of control (GSK3A (human)) [%] | kinase still bound, per cent of control (NLK (human)) [%] | kinase still bound, per cent of control (SIK1 (human)) [%] | kinase still bound, per cent of control (CLK2 (human)) [%] | kinase still bound, per cent of control (STK35 (human)) [%] | other results |
| --- | --- | --- | --- | --- | --- | --- | --- | --- | --- | --- | --- | --- | --- | --- | --- | --- | --- | --- | --- | --- | --- |
| CCN1CCN(Cc2ccc(Nc3ncc4c(n3)N(C)c3ccccc3C(=O)N4C)cc2C(F)(F)F)CC1 | 36 | 35 | 5 | 53 | 47 | 99 | 90 | 100 | 37 | 5 | 88 | 17 | 58 | 95 | 81 | 100 | 56 | 27 | 39 | 76 | kinase still bound, per cent of control (PKMYT1 (human)): 100%; kinase still bound, per cent of control (FES (human)): 100%; kinase still bound, per cent of control (CDK15 (human)): 76%; kinase still bound, per cent of control (PTK2 (human)): 57%; kinase still bound, per cent of control (MAPK10 (human)): 100%; kinase still bound, per cent of control (AKT3 (human)): 100%; kinase still bound, per cent of control (EPHB4 (human)): 93%; kinase still bound, per cent of control (CSNK1G2 (human)): 8.9%; kinase still bound, per cent of control (STK32C (human)): 100%; kinase still bound, per cent of control (AURKC (human)): 8.7%; kinase still bound, per cent of control (ACVR1 (human)): 52%; kinase still bound, per cent of control (STK4 (human)): 72%; kinase still bound, per cent of control (MERTK (human)): 48%; kinase still bound, per cent of control (AAK1 (human)): 36%; kinase still bound, per cent of control (CAMK2A (human)): 53%; kinase still bound, per cent of control (PIM3 (human)): 84%; kinase still bound, per cent of control (NUAK2 (human)): 6.6%; kinase still bound, per cent of control (TAOK3 (human)): 0.1%; kinase still bound, per cent of control (NEK2 (human)): 100%; kinase still bound, per cent of control (AKT2 (human)): 100% |
| Cc1ccc2nc(NCCN)c3ncc(C)n3c2c1 | 100 | 81 | 92 | 71 | 93 | 8.8 | 100 | 0.55 | 100 | 98 | 100 | 100 | 100 | 100 | 100 | 100 | 100 | 100 | 54 | 90 | kinase still bound, per cent of control (PKMYT1 (human)): 84%; kinase still bound, per cent of control (FES (human)): 100%; kinase still bound, per cent of control (CDK15 (human)): 100%; kinase still bound, per cent of control (PTK2 (human)): 97%; kinase still bound, per cent of control (MAPK10 (human)): 100%; kinase still bound, per cent of control (AKT3 (human)): 100%; kinase still bound, per cent of control (EPHB4 (human)): 100%; kinase still bound, per cent of control (CSNK1G2 (human)): 97%; kinase still bound, per cent of control (STK32C (human)): 94%; kinase still bound, per cent of control (AURKC (human)): 100%; kinase still bound, per cent of control (ACVR1 (human)): 100%; kinase still bound, per cent of control (STK4 (human)): 100%; kinase still bound, per cent of control (MERTK (human)): 100%; kinase still bound, per cent of control (AAK1 (human)): 78%; kinase still bound, per cent of control (CAMK2A (human)): 78%; kinase still bound, per cent of control (PIM3 (human)): 92%; kinase still bound, per cent of control (NUAK2 (human)): 100%; kinase still bound, per cent of control (TAOK3 (human)): 59%; kinase still bound, per cent of control (NEK2 (human)): 100%; kinase still bound, per cent of control (AKT2 (human)): 100% |
| N#Cc1c(NC(=O)c2cccc3ccccc23)sc2c1CCCC2 | 49 | 80 | 100 | 84 | 94 | 98 | 94 | 72 | 93 | 85 | 42 | 82 | 72 | 88 | 100 | 72 | 65 | 92 | 87 | 64 | kinase still bound, per cent of control (PKMYT1 (human)): 77%; kinase still bound, per cent of control (FES (human)): 100%; kinase still bound, per cent of control (CDK15 (human)): 69%; kinase still bound, per cent of control (PTK2 (human)): 91%; kinase still bound, per cent of control (MAPK10 (human)): 0.95%; kinase still bound, per cent of control (AKT3 (human)): 82%; kinase still bound, per cent of control (EPHB4 (human)): 100%; kinase still bound, per cent of control (CSNK1G2 (human)): 57%; kinase still bound, per cent of control (STK32C (human)): 97%; kinase still bound, per cent of control (AURKC (human)): 87%; kinase still bound, per cent of control (ACVR1 (human)): 64%; kinase still bound, per cent of control (STK4 (human)): 94%; kinase still bound, per cent of control (MERTK (human)): 100%; kinase still bound, per cent of control (AAK1 (human)): 91%; kinase still bound, per cent of control (CAMK2A (human)): 92%; kinase still bound, per cent of control (PIM3 (human)): 100%; kinase still bound, per cent of control (NUAK2 (human)): 95%; kinase still bound, per cent of control (TAOK3 (human)): 87%; kinase still bound, per cent of control (NEK2 (human)): 65%; kinase still bound, per cent of control (AKT2 (human)): 100% |
